The values below come from patent publication US7960402B2, “Carbamoyl-substituted spiro derivative” (Banyu Pharmaceutical Co., Ltd., priority 2004, dated 2011).

The target in the test is T1, human histamine H3 receptor (Homo sapiens, UniProt Q9Y5N1).
T1 construct: expressed in transfected cells; host or cells: HEK293 and CHO-K1
In words: Test for Inhibition of Bonding of Histamine Analog. Type of test: binding. Conditions: for IC50: membrane specimen from histamine H3 receptor-expressed cells, [3H]N-α-methylhistamine, 25° C., 2 hours, read-out: 50% inhibition concentration (IC50 value) of the test compound to a specific N-alpha-methylhistamine bond; for inhibition of the bond of N-alpha-methylhistamine (histamine analog) to a histamine H3 receptor: summary in words of the IC50 results. The text has this:
A cDNA sequence coding for human histamine H3 receptor [refer to WO 00/39164] was cloned to an expression vector pCR2.1, pEF1× (manufactured by Invitrogen) and pCI-neo (manufactured by Promega). The resulting expression vector was transfected to host cells HEK293 and CHO-K1 (American Type Culture Collection) by a cationic lipid method [refer to Proceedings of the National Academy of Sciences, the United States of America, volume 84, page 7413 (1987)] to give histamine H3 receptor-expressed cells.
A membrane specimen prepared from the cells where histamine H3 receptor was expressed was incubated at 25° C. for 2 hours in an assay buffer (50 mM Tris buffer, pH 7.4) together with a test compound (the compound of Example 1) and 20,000 cpm of [3H]N-α-methylhistamine (manufactured by NEN) and then filtered using a glass filter GF/C. After washing with a 50 mM Tris buffer of pH 7.4, radiation activity on the glass filter was determined. Non-specific bond was measured in the presence of a 10 μM thioperamide (manufactured by Sigam) to determine a 50% inhibition concentration (IC50 value) of the test compound to a specific N-alpha-methylhistamine bond [refer to Molecular Pharmacology, volume 55, page 1101 (1999)].

Molecules are shown by their SMILES.

T1 sequence (Q9Y5N1 whole entry): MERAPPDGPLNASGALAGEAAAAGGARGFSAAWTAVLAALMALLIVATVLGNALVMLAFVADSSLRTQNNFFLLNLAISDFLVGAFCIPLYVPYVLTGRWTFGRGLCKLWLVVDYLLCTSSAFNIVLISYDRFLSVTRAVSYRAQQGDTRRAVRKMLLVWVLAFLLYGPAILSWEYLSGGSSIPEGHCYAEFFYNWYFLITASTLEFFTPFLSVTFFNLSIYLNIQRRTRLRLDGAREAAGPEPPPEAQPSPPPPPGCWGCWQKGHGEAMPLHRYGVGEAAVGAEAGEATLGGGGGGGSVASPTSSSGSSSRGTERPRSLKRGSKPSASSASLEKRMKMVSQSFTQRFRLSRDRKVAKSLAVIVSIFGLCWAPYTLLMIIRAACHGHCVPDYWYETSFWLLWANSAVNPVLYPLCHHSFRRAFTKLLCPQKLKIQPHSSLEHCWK

On to `CN(CCN1CCCCC1)C(=O)[C@H]1CC[C@@]2(CC1)OC(=O)c1cc(F)ccc12.Cl` [Example 10, trans-5′-fluoro-3′-oxo-N-methyl-N-(2-piperidin-1-ylethyl)-spiro[cyclohexane-1,1′-(3′H)-isobenzofuran]-4-carboxamide hydrochloride], for which the IC50 amounted to 4000 pM and the “inhibition of the bond of N-alpha-methylhistamine (histamine analog) to a histamine H3 receptor” value was “strongly inhibited”.

`CN(CCN1CCCCC1)C(=O)[C@H]1CC[C@@]2(CC1)OC(=O)c1cc(-c3ccccn3)ccc12` [Example 58, trans-5′-(Pyridin-2-yl)-3′-oxo-N-methyl-N-(2-piperidin-1-ylethyl)-spiro[cyclohexane-1,1′-(3′H)-isobenzofuran]-4-carboxamide]: the IC50 is 80 pM and the “inhibition of the bond of N-alpha-methylhistamine (histamine analog) to a histamine H3 receptor” value is reported as “strongly inhibited”.

On to `CN(CCN1CCCCC1)C(=O)[C@H]1CC[C@@]2(CC1)OC(=O)c1cc(Oc3ccccn3)ccc12` [Example 68, trans-5′-(Pyridin-2-yloxy)-3′-oxo-N-methyl-N-(2-piperidin-1-ylethyl)-spiro[cyclohexane-1,1′-(3′H)-iso-benzofuran]-4-carboxamide], for which the IC50 stood at 670 pM and the “inhibition of the bond of N-alpha-methylhistamine (histamine analog) to a histamine H3 receptor” value is “strongly inhibited”.
